Experimental data published in ChEMBL document CHEMBL3988442, “University of Dundee, Small-Polar-MMV Screening Library” (2021).
Where “and” joins values, the source holds several entries; their conditions need not be identical. Equal entries are not always repeated.

Experiments:
[1] = target: Chromo domain-containing protein 1 (Saccharomyces cerevisiae (strain ATCC 204508 / S288c) (Baker's yeast), UniProt P32657); assay: ScCHD-1 Enzyme Inhibition Assay; assay type: functional
Leishmania donovani = assay: Leishmania intramacrophage assay; assay type: functional, organism-based; details: Leishmania donovani
[2] = target: T1, Ubiquitin-activating enzyme e1, putative (Leishmania donovani (strain BPK282A1), UniProt E9BSI1); assay: Leishmania donovani Ubiquitin Activating Enzyme (LdE1); assay type: functional
T1 sequence (E9BSI1 whole entry): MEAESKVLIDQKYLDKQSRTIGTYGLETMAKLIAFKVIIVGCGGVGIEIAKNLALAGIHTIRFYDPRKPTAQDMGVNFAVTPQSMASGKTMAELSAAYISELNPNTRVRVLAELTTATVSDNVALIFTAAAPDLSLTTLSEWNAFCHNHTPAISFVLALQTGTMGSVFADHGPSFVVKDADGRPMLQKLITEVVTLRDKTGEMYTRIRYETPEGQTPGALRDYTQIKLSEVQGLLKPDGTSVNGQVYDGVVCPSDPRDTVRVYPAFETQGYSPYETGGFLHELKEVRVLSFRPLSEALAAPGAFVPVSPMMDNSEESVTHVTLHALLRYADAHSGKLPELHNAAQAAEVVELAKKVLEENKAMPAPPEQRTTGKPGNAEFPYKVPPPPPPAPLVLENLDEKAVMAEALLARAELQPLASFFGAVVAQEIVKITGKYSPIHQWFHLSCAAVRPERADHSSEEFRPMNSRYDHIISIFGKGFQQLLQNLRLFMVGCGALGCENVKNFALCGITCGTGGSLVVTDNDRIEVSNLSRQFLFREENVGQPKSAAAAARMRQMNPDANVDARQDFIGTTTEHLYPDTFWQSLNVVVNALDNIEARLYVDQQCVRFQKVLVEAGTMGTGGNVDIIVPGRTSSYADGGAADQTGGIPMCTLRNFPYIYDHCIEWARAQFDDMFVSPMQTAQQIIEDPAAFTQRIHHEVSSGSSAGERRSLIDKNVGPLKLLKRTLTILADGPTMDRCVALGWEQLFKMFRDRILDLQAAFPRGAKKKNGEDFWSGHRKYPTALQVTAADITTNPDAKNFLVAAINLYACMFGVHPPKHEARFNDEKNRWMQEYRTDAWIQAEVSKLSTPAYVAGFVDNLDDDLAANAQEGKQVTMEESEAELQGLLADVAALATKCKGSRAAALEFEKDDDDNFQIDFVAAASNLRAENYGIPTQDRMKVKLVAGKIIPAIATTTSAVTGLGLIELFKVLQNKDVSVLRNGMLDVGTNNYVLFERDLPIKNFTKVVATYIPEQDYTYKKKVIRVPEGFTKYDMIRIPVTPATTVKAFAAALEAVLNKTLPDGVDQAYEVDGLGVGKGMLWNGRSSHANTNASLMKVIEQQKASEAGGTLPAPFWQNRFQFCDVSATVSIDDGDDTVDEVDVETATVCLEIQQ

Lysine--tRNA ligase = Lysine--tRNA ligase (Plasmodium falciparum (isolate 3D7), UniProt Q8IDJ8); assay: Pf-KRS-1 (Lysyl-RNA Synthetase-1, KRS-1, cytosolic KRS) from Plasmodium falciparum. Inhibitor assay, 384 well plate, luminescence read.; assay type: functional
Plasmodium falciparum = assay: Plasmodium falciparum sporozoite viability assay; assay type: functional, organism-based; details: Plasmodium falciparum
Histidine--tRNA ligase = target: T2, Histidine--tRNA ligase (Leishmania infantum, UniProt A4I591); assay: Leishmania infantum Histidine tRNA synthetase (LdHisRS); assay type: functional
T2 sequence (A4I591 whole entry): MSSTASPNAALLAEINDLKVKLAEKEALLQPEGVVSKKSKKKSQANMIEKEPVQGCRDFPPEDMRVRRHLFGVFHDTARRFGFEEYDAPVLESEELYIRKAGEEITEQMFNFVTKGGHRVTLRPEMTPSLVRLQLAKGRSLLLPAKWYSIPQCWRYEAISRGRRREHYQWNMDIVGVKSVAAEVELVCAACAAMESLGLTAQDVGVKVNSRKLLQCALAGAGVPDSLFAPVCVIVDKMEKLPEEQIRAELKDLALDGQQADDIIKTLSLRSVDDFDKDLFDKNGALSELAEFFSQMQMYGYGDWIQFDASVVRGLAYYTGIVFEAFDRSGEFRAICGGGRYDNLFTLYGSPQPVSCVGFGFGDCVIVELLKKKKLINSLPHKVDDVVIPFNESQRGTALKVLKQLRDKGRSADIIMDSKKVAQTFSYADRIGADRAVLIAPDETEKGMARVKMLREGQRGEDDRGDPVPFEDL

[3] = tested on: Mycobacterium tuberculosis; assay: Cornell M. t heat shock assay; assay type: functional, organism-based; details: Mycobacterium tuberculosis

Chain of Lysine--tRNA ligase (Q8IDJ8 whole entry): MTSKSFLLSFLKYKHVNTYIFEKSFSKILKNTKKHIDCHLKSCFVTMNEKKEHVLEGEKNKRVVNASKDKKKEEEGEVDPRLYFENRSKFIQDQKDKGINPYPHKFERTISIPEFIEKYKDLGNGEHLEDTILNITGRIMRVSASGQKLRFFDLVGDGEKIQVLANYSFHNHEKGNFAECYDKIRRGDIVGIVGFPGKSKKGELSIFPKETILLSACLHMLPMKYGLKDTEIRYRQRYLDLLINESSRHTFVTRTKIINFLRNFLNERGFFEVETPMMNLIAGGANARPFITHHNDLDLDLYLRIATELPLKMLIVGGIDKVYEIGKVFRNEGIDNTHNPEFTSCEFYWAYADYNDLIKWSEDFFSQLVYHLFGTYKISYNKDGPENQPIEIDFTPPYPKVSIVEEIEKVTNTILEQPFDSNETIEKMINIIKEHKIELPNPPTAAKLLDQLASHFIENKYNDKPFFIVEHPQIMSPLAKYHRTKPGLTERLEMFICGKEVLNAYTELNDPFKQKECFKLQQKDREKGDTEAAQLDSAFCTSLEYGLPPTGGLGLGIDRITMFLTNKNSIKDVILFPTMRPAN
Chain of Chromo domain-containing protein 1 (P32657 whole entry, the tested form may be a part): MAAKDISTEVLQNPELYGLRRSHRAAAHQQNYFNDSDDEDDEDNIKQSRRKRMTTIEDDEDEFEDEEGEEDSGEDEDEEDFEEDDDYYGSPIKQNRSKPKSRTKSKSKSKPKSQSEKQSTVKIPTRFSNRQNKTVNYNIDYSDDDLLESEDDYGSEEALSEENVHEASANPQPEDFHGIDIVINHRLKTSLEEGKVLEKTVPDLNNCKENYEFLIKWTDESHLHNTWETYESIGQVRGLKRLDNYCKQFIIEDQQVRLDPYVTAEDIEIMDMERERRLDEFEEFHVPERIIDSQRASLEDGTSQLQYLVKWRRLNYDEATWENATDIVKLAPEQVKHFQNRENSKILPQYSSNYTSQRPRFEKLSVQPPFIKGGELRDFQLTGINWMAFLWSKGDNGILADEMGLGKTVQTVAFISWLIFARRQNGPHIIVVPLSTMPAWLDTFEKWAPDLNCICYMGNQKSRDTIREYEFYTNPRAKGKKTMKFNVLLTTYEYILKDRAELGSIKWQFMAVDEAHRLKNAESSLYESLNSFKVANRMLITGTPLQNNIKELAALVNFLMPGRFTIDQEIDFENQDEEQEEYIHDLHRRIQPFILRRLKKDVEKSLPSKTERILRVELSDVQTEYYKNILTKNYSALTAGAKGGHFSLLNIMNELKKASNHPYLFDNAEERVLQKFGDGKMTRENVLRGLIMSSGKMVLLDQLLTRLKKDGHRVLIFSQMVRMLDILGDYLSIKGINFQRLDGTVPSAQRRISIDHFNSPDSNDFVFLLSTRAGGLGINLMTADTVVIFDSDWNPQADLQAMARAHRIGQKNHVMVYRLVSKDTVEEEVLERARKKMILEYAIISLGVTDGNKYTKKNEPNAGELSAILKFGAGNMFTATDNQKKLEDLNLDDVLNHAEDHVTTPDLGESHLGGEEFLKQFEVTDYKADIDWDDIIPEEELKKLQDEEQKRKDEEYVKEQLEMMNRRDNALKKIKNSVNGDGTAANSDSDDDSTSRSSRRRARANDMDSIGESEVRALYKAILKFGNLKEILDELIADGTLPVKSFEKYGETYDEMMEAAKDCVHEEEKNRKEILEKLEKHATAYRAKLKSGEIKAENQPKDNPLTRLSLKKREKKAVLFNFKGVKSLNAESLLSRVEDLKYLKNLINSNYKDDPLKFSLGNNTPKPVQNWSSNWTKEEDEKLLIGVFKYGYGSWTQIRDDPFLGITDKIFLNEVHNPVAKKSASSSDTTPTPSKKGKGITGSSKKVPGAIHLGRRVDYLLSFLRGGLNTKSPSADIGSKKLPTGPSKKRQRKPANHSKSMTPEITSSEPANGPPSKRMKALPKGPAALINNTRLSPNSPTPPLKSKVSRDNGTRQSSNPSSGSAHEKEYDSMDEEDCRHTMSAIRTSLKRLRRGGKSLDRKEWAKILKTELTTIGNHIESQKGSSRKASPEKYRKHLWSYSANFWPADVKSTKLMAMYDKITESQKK

SMILES | IC50 [1] | other results
CCn1nccc1CNC(=O)C1CC1 | > 29.5 µM | –
CN(C)Cc1nnc(C2CCN(C(=O)CCc3cccs3)CC2)n1C | > 29.5 µM | –
COc1cccc2c1OCC(C(=O)NC1CCN(S(C)(=O)=O)CC1)C2 (stereo unspecified) | > 29.5 µM | –
COCCNC(=O)C(C)n1cc(Br)cn1 (stereo unspecified) | > 29.5 µM | –
CCn1nc(CC(C)C)cc1C(=O)N1CC[C@@H](O)C1 | > 29.5 µM | –
CSCc1nc(C(C)(C)NC(=O)OC(C)(C)C)no1 | > 29.5 µM | –
COCCN1CCN(CCCS(C)(=O)=O)CC1C (stereo unspecified) | > 29.5 µM | –
COCCn1ccc(NC(=O)Nc2ccc(C(N)=O)c(F)c2)n1 | > 29.5 µM | –
O=C(O)c1nnn(-c2ccc(OC(F)(F)F)cc2)c1-c1ccncc1 | > 29.5 µM | –
CC(NC(=O)NCCNc1cnccn1)c1cccs1 (stereo unspecified) | – | IC50 (Leishmania donovani): > 50.1 µM; IC50 [2]: > 100 µM
CCn1ncnc1C1CC(=O)NCc2nc3ccccn3c21 (stereo unspecified) | > 29.5 µM | –
O=C(c1ccnnc1)N1C[C@@H](OCC2CCOCC2)[C@H]2OCCC[C@H]21 | > 29.5 µM | –
CC(=O)NCCC(=O)NCc1cccnc1-n1cnc2ccccc21 | > 29.5 µM | –
COCCN(C(=O)c1ccccn1)c1nc2c(s1)CCc1c-2cnn1C | – | IC50 (Lysine--tRNA ligase): > 50.1 µM; IC50 (Plasmodium falciparum): 0.574 µM; IC50 [2]: > 100 µM; IC50 (Histidine--tRNA ligase): 9.13 µM and 10.9 µM
COc1ccc(C(=O)C2CCCN(Cc3ccncc3)C2)c(OC)c1 (stereo unspecified) | > 29.5 µM | –
O=C(CCc1c[nH]cn1)N1CC[C@@H](c2ccc3ccccc3c2)[C@H](O)C1 | > 29.5 µM | –
CCOCCN1CCN(Cc2cccc(C(=O)N(C)C)c2)CC1 | > 29.5 µM | –
O=C1NCc2ccc(NC(=O)C3CCCN3c3nccs3)cc21 (stereo unspecified) | > 29.5 µM | –
O=C(NC1CC1)[C@H]1CC[C@@H]2[C@@H](CCN2c2ncc(F)cn2)O1 | > 29.5 µM | –
CN(Cc1cccc(F)c1)C(=O)CN1CCCC1CCc1ccccc1 (stereo unspecified) | > 29.5 µM | –

SMILES | IC50 [1] | other results
COc1ccc(C2=C(C)C(N3CCc4ccccc4C3)=NS2(=O)=O)cc1 | 27.1 µM and 24 µM | –
O=C1CSC(c2cccs2)c2cnn(C3CCCC3)c2N1 (stereo unspecified) | > 29.5 µM | –
CCCN(C(=O)c1cccnc1)c1nc2c(s1)CCc1c-2cnn1C | – | IC50 (Lysine--tRNA ligase): > 50.1 µM; IC50 [2]: > 100 µM; IC50 (Histidine--tRNA ligase): 16.8 µM and 13.1 µM
CCOc1ccc(N2CCCN=C2NC(=O)c2ccccc2C)cc1 | > 29.5 µM | –
Cc1c(C(=O)NCC2CCCO2)nnn1-c1cccc2c1CCN(C)C2 (stereo unspecified) | > 29.5 µM | –
CC(CNC(=O)c1ccc(Cl)cc1I)N1CCCC1 (stereo unspecified) | > 29.5 µM | –
Cc1cccc(CN2CC[C@@H]3[C@@H]2CCN3C(=O)c2ccno2)n1 | > 29.5 µM | –
Cc1cccc(CN2C[C@@H]3COC[C@]3(CNC(=O)c3ccsc3)C2)n1 | > 29.5 µM | –
Cn1cnc2c1C(COCC1CC1)CN(C(=O)Cc1ccsc1)C2 (stereo unspecified) | > 29.5 µM | –
Cc1ccccc1C1CCCN1C(=O)CN1CC2(CCNCC2)OC1=O (stereo unspecified) | > 29.5 µM | –
COc1ccc(C(=O)N2CCCCC2c2nc(C)cs2)nn1 (stereo unspecified) | 21.8 µM and > 29.5 µM | –
CC(C)(C)n1ncc2c1NC(=O)CC2c1ccccc1 (stereo unspecified) | > 29.5 µM | –
CCCN(C(=O)c1cnc(C)cn1)c1nc2c(s1)CCc1c-2cnn1C | – | IC50 (Lysine--tRNA ligase): > 50.1 µM; IC50 [2]: > 100 µM; IC50 (Histidine--tRNA ligase): 43.9 µM and 33.5 µM
O=C(NCC(F)(F)F)NC1CCCc2c1cnn2CCO (stereo unspecified) | > 29.5 µM | –
COCc1nc2cc(NCc3sc(C)nc3C)ccc2o1 | – | IC50 (Lysine--tRNA ligase): > 50.1 µM; IC50 [2]: > 100 µM; IC50 (Histidine--tRNA ligase): 15.1 µM and 19.3 µM
CCc1nnc(CNC2CCc3nc(C(C)C)nn3C2)o1 (stereo unspecified) | – | IC50 [2]: > 100 µM; IC50 [3]: > 100 µM
CNS(=O)(=O)Cc1ccc(CNC(=O)Nc2cn[nH]c2)cc1 | – | IC50 (Lysine--tRNA ligase): > 50.1 µM; IC50 [2]: > 100 µM
Cn1nc2c(cc1=O)CN(Cc1nc(C3CC3)no1)CC2 | – | IC50 [2]: > 100 µM; IC50 (Histidine--tRNA ligase): 23.8 µM and 20.7 µM
Cn1nc2c(cc1=O)CN(Cc1coc(-c3cccc(F)c3)n1)CC2 | – | IC50 [2]: > 100 µM; IC50 (Histidine--tRNA ligase): 17 µM and 14.3 µM
CCCN(C(=O)c1ccncc1)c1nc2c(s1)CCc1c-2cnn1C | – | IC50 (Lysine--tRNA ligase): > 50.1 µM; IC50 [2]: > 100 µM; IC50 (Histidine--tRNA ligase): 20.6 µM and 17 µM
